Test results published in ChEMBL document CHEMBL1201862, “PubChem BioAssay data set” (2004).
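96-well plates; 48 h exposure; 5 concentrations. Endpoints by linear interpolation between flanking doses. Not reached: highest tested concentration assigned. The concentration for 50% growth inhibition is given as GI50.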 Active and inactive are the calls of the source. Cut-off read from the data, not from the text of the source: active = GI50 up to about 1.1 µM and inactive = higher.

Key:
Test in all cases: growth of human tumour cells (NCI), 48 h
OVCAR-8 = tested on: OVCAR-8
DU-145 = tested on: DU-145
PC-3 = tested on: PC-3
HCT-15 = tested on: HCT-15
RXF 393 = tested on: RXF 393
COLO 205 = tested on: COLO 205
SN12C = tested on: SN12C
IGROV-1 = tested on: IGROV-1
NCI-H522 = tested on: NCI-H522
MDA-MB-435 = tested on: MDA-MB-435
UACC-62 = tested on: UACC-62
TK-10 = tested on: TK-10
RPMI-8226 = tested on: RPMI-8226
SK-OV-3 = tested on: SK-OV-3
MDA-MB-231 = tested on: MDA-MB-231
SF-539 = tested on: SF-539
MOLT-4 = tested on: MOLT-4
HOP-92 = tested on: HOP-92
OVCAR-3 = tested on: OVCAR-3
SK-MEL-28 = tested on: SK-MEL-28
U-251 = tested on: U-251
Malme-3M = tested on: Malme-3M
ACHN = tested on: ACHN
OVCAR-5 = tested on: OVCAR-5
BT-549 = tested on: BT-549
UO-31 = tested on: UO-31
HOP-62 = tested on: HOP-62
CCRF-CEM = tested on: CCRF-CEM
SNB-19 = tested on: SNB-19
SK-MEL-5 = tested on: SK-MEL-5
CAKI-1 = tested on: CAKI-1
HCC 2998 = tested on: HCC 2998
NCI-H226 = tested on: NCI-H226
SNB-75 = tested on: SNB-75
SF-268 = tested on: SF-268
HL-60 = tested on: HL-60
KM12 = tested on: KM12
M14 = tested on: M14
786-0 = tested on: 786-0
Hs-578T = tested on: Hs-578T
EKVX = tested on: EKVX
LOX IMVI = tested on: LOX IMVI
K562 = tested on: K562
T47D = tested on: T47D
HCT-116 = tested on: HCT-116
HT-29 = tested on: HT-29
OVCAR-4 = tested on: OVCAR-4
SR = tested on: SR
NCI-H460 = tested on: NCI-H460
SW-620 = tested on: SW-620
A498 = tested on: A498
MCF7 = tested on: MCF7
SK-MEL-2 = tested on: SK-MEL-2
SF-295 = tested on: SF-295
UACC-257 = tested on: UACC-257
A549 = tested on: A549
NCI/ADR-RES = tested on: NCI/ADR-RES
NCI-H23 = tested on: NCI-H23
MDA-N = tested on: MDA-N

SMILES: COc1ccc2cc(CN3CCC(C4CCNCC4)CC3)ccc2c1
- GI50 (OVCAR-8): 3.4 µM (inactive)
- GI50 (DU-145): 4.2 µM (inactive)
- GI50 (PC-3): 7.8 µM (inactive)
- GI50 (HCT-15): 2.28 µM
- GI50 (RXF 393): 2.28 µM (inactive)
- GI50 (COLO 205): 1.69 µM (inactive)
- GI50 (SN12C): 6.85 µM (inactive)
- GI50 (IGROV-1): 3.7 µM (inactive)
- GI50 (NCI-H522): 2.17 µM (inactive)
- GI50 (MDA-MB-435): 1.91 µM (inactive)
- GI50 (UACC-62): 1.97 µM (inactive)
- GI50 (TK-10): 3.79 µM (inactive)
- GI50 (RPMI-8226): 1.53 µM (inactive)
- GI50 (SK-OV-3): 10 µM (inactive)
- GI50 (MDA-MB-231): 2.2 µM (inactive)
- GI50 (SF-539): 1.71 µM (inactive)
- GI50 (MOLT-4): 0.437 µM (active)
- GI50 (HOP-92): 1.79 µM (inactive)
- GI50 (OVCAR-3): 5.41 µM (inactive)
- GI50 (SK-MEL-28): 1.75 µM (inactive)
- GI50 (U-251): 1.91 µM (inactive)
- GI50 (Malme-3M): 1.72 µM (inactive)
- GI50 (ACHN): 3.61 µM (inactive)
- GI50 (OVCAR-5): 7.76 µM (inactive)
- GI50 (BT-549): 8.67 µM (inactive)
- GI50 (UO-31): 2.45 µM (inactive)
- GI50 (HOP-62): 2.67 µM (inactive)
- GI50 (CCRF-CEM): 1.96 µM (inactive)
- GI50 (SNB-19): 6.65 µM (inactive)
- GI50 (SK-MEL-5): 1.79 µM (inactive)
- GI50 (CAKI-1): 2.48 µM (inactive)
- GI50 (HCC 2998): 0.412 µM (active)
- GI50 (NCI-H226): 7.93 µM (inactive)
- GI50 (SNB-75): 1.91 µM (inactive)
- GI50 (SF-268): 2.58 µM (inactive)
- GI50 (HL-60): 1.49 µM (inactive)
- GI50 (KM12): 2.11 µM (inactive)
- GI50 (M14): 2.06 µM (inactive)
- GI50 (786-0): 1.67 µM (inactive)
- GI50 (Hs-578T): 2.93 µM (inactive)
- GI50 (EKVX): 5.02 µM (inactive)
- GI50 (LOX IMVI): 1.6 µM (inactive)
- GI50 (K562): 0.959 µM (active)
- GI50 (T47D): 2.33 µM (inactive)
- GI50 (HCT-116): 1.8 µM (inactive)
- GI50 (HT-29): 1.3 µM (inactive)
- GI50 (OVCAR-4): 8.97 µM (inactive)
- GI50 (SR): 2.07 µM (inactive)
- GI50 (NCI-H460): 1.93 µM (inactive)
- GI50 (SW-620): 1.82 µM (inactive)
- GI50 (A498): 5.33 µM (inactive)
- GI50 (MCF7): 2.11 µM (inactive)
- GI50 (SK-MEL-2): 1.91 µM (inactive)
- GI50 (SF-295): 1.89 µM (inactive)
- GI50 (UACC-257): 1.87 µM (inactive)
- GI50 (A549): 12.2 µM (inactive)
- GI50 (NCI/ADR-RES): 2.88 µM (inactive)
- GI50 (NCI-H23): 12 µM (inactive)
- GI50 (MDA-N): 2.02 µM (inactive)

SMILES: CCc1ccc(/C=C/C(=O)C2CN(CC)CCC2(O)/C=C/c2ccc(CC)cc2)cc1 (stereo not drawn)
- GI50 (OVCAR-8): 3.3 µM (inactive)
- GI50 (DU-145): 9.55 µM (inactive)
- GI50 (PC-3): 3.55 µM (inactive)
- GI50 (HCT-15): 3.24 µM
- GI50 (RXF 393): 3.18 µM (inactive)
- GI50 (COLO 205): 2.45 µM (inactive)
- GI50 (SN12C): 4.09 µM (inactive)
- GI50 (IGROV-1): 2.06 µM (inactive)
- GI50 (NCI-H522): 2.59 µM (inactive)
- GI50 (MDA-MB-435): 1.88 µM (inactive)
- GI50 (UACC-62): 4.92 µM (inactive)
- GI50 (TK-10): 2.34 µM (inactive)
- GI50 (RPMI-8226): 1.36 µM (inactive)
- GI50 (SK-OV-3): 12.3 µM (inactive)
- GI50 (MDA-MB-231): 2.23 µM (inactive)
- GI50 (SF-539): 2.31 µM (inactive)
- GI50 (MOLT-4): 2.2 µM (inactive)
- GI50 (HOP-92): 1.71 µM (inactive)
- GI50 (OVCAR-3): 1.71 µM (inactive)
- GI50 (SK-MEL-28): 1.55 µM (inactive)
- GI50 (U-251): 1.66 µM (inactive)
- GI50 (Malme-3M): 7.31 µM (inactive)
- GI50 (ACHN): 1.95 µM (inactive)
- GI50 (OVCAR-5): 3.16 µM (inactive)
- GI50 (BT-549): 4.68 µM (inactive)
- GI50 (UO-31): 3.2 µM (inactive)
- GI50 (HOP-62): 1.91 µM (inactive)
- GI50 (CCRF-CEM): 1.87 µM (inactive)
- GI50 (SNB-19): 7.62 µM (inactive)
- GI50 (SK-MEL-5): 4.36 µM (inactive)
- GI50 (CAKI-1): 6.59 µM (inactive)
- GI50 (HCC 2998): 2.22 µM (inactive)
- GI50 (NCI-H226): 4.41 µM (inactive)
- GI50 (SNB-75): 9.33 µM (inactive)
- GI50 (SF-268): 4.57 µM (inactive)
- GI50 (HL-60): 2.77 µM (inactive)
- GI50 (KM12): 1.87 µM (inactive)
- GI50 (M14): 2.61 µM (inactive)
- GI50 (786-0): 1.75 µM (inactive)
- GI50 (Hs-578T): 2.83 µM (inactive)
- GI50 (EKVX): 4.75 µM (inactive)
- GI50 (LOX IMVI): 1.51 µM (inactive)
- GI50 (K562): 2.52 µM (inactive)
- GI50 (T47D): 4.15 µM (inactive)
- GI50 (HCT-116): 1.79 µM (inactive)
- GI50 (HT-29): 1.83 µM (inactive)
- GI50 (OVCAR-4): 4.2 µM (inactive)
- GI50 (SR): 1.71 µM (inactive)
- GI50 (NCI-H460): 2.22 µM (inactive)
- GI50 (SW-620): 1.88 µM (inactive)
- GI50 (A498): 10.7 µM (inactive)
- GI50 (MCF7): 2.42 µM (inactive)
- GI50 (SK-MEL-2): 7.18 µM (inactive)
- GI50 (SF-295): 2.94 µM (inactive)
- GI50 (UACC-257): 6.92 µM (inactive)
- GI50 (A549): 7.08 µM (inactive)
- GI50 (NCI/ADR-RES): 3.47 µM (inactive)
- GI50 (NCI-H23): 4.61 µM (inactive)
- GI50 (MDA-N): 3.23 µM (inactive)
